Experimental data: PubChem BioAssay AID206 (DTP/NCI, 2004)
Where “and” joins values, the source holds several entries; their conditions need not be identical. Identical values can stand only once. Results filed as inconclusive are left out.

Test system: nude mice, HT29 intrarenal xenograft, tumor weight T/C
Assay: NCI In Vivo Anticancer Drug Screen. Data for tumor model HT29;CX-1 Human Adenocarcinoma (MER+) (intrarenal inoculation) in NU/NU Swiss (nude) mice
Settings: endpoint: mean tumor weight change, higher = larger tumour
In short: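 Readout: treated/vehicle-control ratio of the measured endpoint (tumor size or survival) in transplanted-tumor mice.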

[1] = dose: 150.0 mg/kg/injection, schedule: Q04DX004 (sc), vehicle: saline
[2] = dose: 0.5 mg/kg/injection, schedule: Q01DX010 (sc), vehicle: saline
[3] = dose: 150.0 mg/kg/injection, schedule: Q04DX004 (sc), vehicle: saline with Tween-80
[4] = dose: 100.0 mg/kg/injection, schedule: Q04DX004 (sc), vehicle: saline
[5] = dose: 200.0 mg/kg/injection, schedule: Q04DX004 (sc), vehicle: saline
[6] = dose: 200.0 mg/kg/injection, schedule: Q01DX010 (sc), vehicle: Klucel (hydroxypropylcellulose) (HPC)
[7] = dose: 400.0 mg/kg/injection, schedule: Q01DX010 (sc), vehicle: Klucel (hydroxypropylcellulose) (HPC)

## COc1cccc2c1C(=O)c1c(O)c3c(c(O)c1C2=O)CC(O)(/C(C)=N/NC(=O)CCC(=O)N/N=C(\C)C1(O)Cc2c(O)c4c(c(O)c2C(OC2CC(N)C(O)C(C)O2)C1)C(=O)c1c(OC)cccc1C4=O)CC3OC1CC(N)C(O)C(C)O1 (stereo not drawn)
dose: 6.25 mg/kg/injection, schedule: Q01DX010 (sc), vehicle: water
  T/C: 114 % of control
dose: 12.5 mg/kg/injection, schedule: Q01DX010 (sc), vehicle: water
  T/C: 47 % of control
dose: 15.63 mg/kg/injection, schedule: Q04DX004 (sc), vehicle: water
  T/C: 64 % of control
dose: 25.0 mg/kg/injection, schedule: Q01DX010 (sc), vehicle: water
  T/C: 46 % of control
dose: 31.25 mg/kg/injection, schedule: Q04DX004 (sc), vehicle: water
  T/C: 3 % of control
dose: 62.5 mg/kg/injection, schedule: Q04DX004 (sc), vehicle: water
  T/C: 120 % of control

## CN(CCN(C)C(=O)CCOS(C)(=O)=O)C(=O)CCOS(C)(=O)=O
dose: 75.0 mg/kg/injection, schedule: Q04DX004 (sc), vehicle: saline
  T/C: 64 % of control
[1]
  T/C: 36 % of control

## O=S(=O)(O)O.[NH-]C1CCCCC1[NH-].[Pt+2] (stereo not drawn)
dose: 0.62 mg/kg/injection, schedule: Q01DX010 (sc), vehicle: dextrose
  T/C: 21 % of control

## C#C[C@]1(O)CC[C@H]2[C@@H]3CCc4cc(O)ccc4[C@H]3CC[C@@]21C
dose: 600.0 mg/kg/injection, schedule: Q04DX004 (sc), vehicle: Klucel (hydroxypropylcellulose) (HPC)
  T/C: 91 % of control
dose: 1200.0 mg/kg/injection, schedule: Q04DX004 (sc), vehicle: Klucel (hydroxypropylcellulose) (HPC)
  T/C: 83 % of control
dose: 2400.0 mg/kg/injection, schedule: Q04DX004 (sc), vehicle: Klucel (hydroxypropylcellulose) (HPC)
  T/C: 80 % of control

## O=NN(CCCl)C(=O)NC1[C@H](O)CCC[C@@H]1O (stereo partly drawn)
dose: 10.0 mg/kg/injection, schedule: Q04DX004 (sc), vehicle: saline
  T/C: 90 % of control

## O=NNc1ccccn1
dose: 0.13 mg/kg/injection, schedule: Q01DX010 (sc), vehicle: saline
  T/C: 150 % of control
dose: 0.25 mg/kg/injection, schedule: Q01DX010 (sc), vehicle: saline
  T/C: 176 % of control
[2]
  T/C: 112 % of control
dose: 1.0 mg/kg/injection, schedule: Q01DX010 (sc), vehicle: saline
  T/C: 208 % of control
dose: 4.0 mg/kg/injection, schedule: Q01DX010 (sc), vehicle: saline
  T/C: 105 % of control
dose: 32.0 mg/kg/injection, schedule: Q01DX010 (sc), vehicle: saline
  T/C: 90 % of control

## COC(=Nc1ccccc1)SSC(C)C
[3]
  T/C: 104 % of control
dose: 300.0 mg/kg/injection, schedule: Q04DX004 (sc), vehicle: saline with Tween-80
  T/C: 118 % of control
dose: 600.0 mg/kg/injection, schedule: Q04DX004 (sc), vehicle: saline with Tween-80
  T/C: 117 % of control
dose: 1200.0 mg/kg/injection, schedule: Q04DX004 (sc), vehicle: saline with Tween-80
  T/C: 117 % of control

## C(COCCOCC1CO1)OCCOCC1CO1 (stereo not drawn)
[1]
  T/C: 63 % of control
dose: 300.0 mg/kg/injection, schedule: Q04DX004 (sc), vehicle: saline
  T/C: 55 % of control
dose: 600.0 mg/kg/injection, schedule: Q04DX004 (sc), vehicle: saline
  T/C: 43 % of control

## CN1C(=O)CC2(CCN(CCCC(=O)c3ccc(F)cc3)CC2)C1=O
dose: 75.0 mg/kg/injection, schedule: Q04DX004 (sc), vehicle: suspension in saline
  T/C: 120 % of control

## COc1ccc(C[C@H](N)C(=O)NC2C(CO)OC(n3cnc4c(N(C)C)ncnc43)C2O)cc1 (stereo partly drawn)
[4]
  T/C: 174 % of control
[5]
  T/C: 96 % of control
dose: 400.0 mg/kg/injection, schedule: Q04DX004 (sc), vehicle: saline
  T/C: 185 % of control

## OC(CBr)C(O)C(O)C(O)CBr (stereo not drawn)
dose: 15.0 mg/kg/injection, schedule: Q01DX010 (sc), vehicle: Klucel (hydroxypropylcellulose) (HPC)
  T/C: 82 % of control
dose: 30.0 mg/kg/injection, schedule: Q01DX010 (sc), vehicle: Klucel (hydroxypropylcellulose) (HPC)
  T/C: 44 % of control
dose: 120.0 mg/kg/injection, schedule: Q01DX010 (sc), vehicle: Klucel (hydroxypropylcellulose) (HPC)
  T/C: 43 % of control
[6]
  T/C: 101 % of control
[7]
  T/C: 59 % of control

## COc1cccc2c1C(=O)c1c(O)c3c(c(O)c1C2=O)C[C@@](O)(C(=O)COC(=O)c1cccnc1)C[C@@H]3OC1CC(N)C(O)C(C)O1 (stereo partly drawn)
dose: 6.0 mg/kg/injection, schedule: Q04DX004 (sc), vehicle: saline
  T/C: 44 % of control and 65 % of control

## CCCC(=O)OCc1cc(=O)n(C)c2c3c4c(cc12)c(C)cc(=O)n4CO3
[6]
  T/C: 71 % of control

## C[C@@]1(CO)[C@H](O)CC[C@@]2(C)[C@H]1CC[C@H]1C[C@@H]3C[C@@]12CC[C@@]3(O)COC(=O)CN
dose: 8.0 mg/kg/injection, schedule: Q04DX004 (sc), vehicle: saline + alcohol
  T/C: 226 % of control
dose: 16.0 mg/kg/injection, schedule: Q04DX004 (sc), vehicle: saline + alcohol
  T/C: 106 % of control
dose: 32.0 mg/kg/injection, schedule: Q04DX004 (sc), vehicle: saline + alcohol
  T/C: 94 % of control
dose: 64.0 mg/kg/injection, schedule: Q04DX004 (sc), vehicle: saline + alcohol
  T/C: 218 % of control
dose: 500.0 micrograms/kg/injection, schedule: Q04DX004 (sc), vehicle: saline + alcohol
  T/C: 97 % of control
dose: 1000.0 micrograms/kg/injection, schedule: Q04DX004 (sc), vehicle: saline + alcohol
  T/C: 108 % of control
dose: 2000.0 micrograms/kg/injection, schedule: Q04DX004 (sc), vehicle: saline + alcohol
  T/C: 101 % of control
dose: 4000.0 micrograms/kg/injection, schedule: Q04DX004 (sc), vehicle: saline + alcohol
  T/C: 73 % of control

## CN1CCN(c2ccc3nc(-c4ccc5nc(-c6ccc(O)cc6)[nH]c5c4)[nH]c3c2)CC1
[4]
  T/C: 35 % of control
[5]
  T/C: 61 % of control
dose: 800.0 mg/kg/injection, schedule: Q04DX004 (sc), vehicle: saline
  T/C: 56 % of control

## Oc1ccc(SCc2ccc(NCc3ccccc3)cc2)cc1
dose: 400.0 mg/kg/injection, schedule: Q01DX009 (sc), vehicle: saline with Tween-80
  T/C: 50 % of control
dose: 500.0 mg/kg/injection, schedule: Q01DX010 (sc), vehicle: saline with Tween-80
  T/C: 90 % of control
dose: 800.0 mg/kg/injection, schedule: Q01DX009 (sc), vehicle: saline with Tween-80
  T/C: 84 % of control
dose: 1000.0 mg/kg/injection, schedule: Q01DX010 (sc), vehicle: saline with Tween-80
  T/C: 84 % of control
dose: 1600.0 mg/kg/injection, schedule: Q01DX009 (sc), vehicle: saline with Tween-80
  T/C: 49 % of control
dose: 2000.0 mg/kg/injection, schedule: Q01DX010 (sc), vehicle: saline with Tween-80
  T/C: 54 % of control

## COC1=CC(=O)C(OC)=C(OC)C1=O
dose: 38.0 mg/kg/injection, schedule: Q04DX004 (sc), vehicle: saline with Tween-80
  T/C: 78 % of control
dose: 75.0 mg/kg/injection, schedule: Q04DX004 (sc), vehicle: saline with Tween-80
  T/C: 88 % of control
[3]
  T/C: 89 % of control

## COc1cc2c(c(OC)c1OC)-c1ccc(OC)c(=O)cc1[C@@H](NC(C)=O)CC2
[2]
  T/C: 70 % of control

## O=[N+]([O-])/C=C\c1ccc2c(c1)OCO2
dose: 100.0 mg/kg/injection, schedule: Q01DX010 (sc), vehicle: Klucel (hydroxypropylcellulose) (HPC)
  T/C: 55 % of control
[7]
  T/C: 163 % of control
dose: 800.0 mg/kg/injection, schedule: Q01DX010 (sc), vehicle: Klucel (hydroxypropylcellulose) (HPC)
  T/C: 77 % of control

## COC(C(=O)C(O)C(C)O)C1Cc2cc3cc(OC4CC(OC(C)=O)C(OC5CC(O)C(OC)C(C)O5)C(C)O4)cc(O)c3c(O)c2C(=O)C1OC1CC(OC2CC(OC3CC(C)(O)C(OC(=O)C(C)C)C(C)O3)C(O)C(C)O2)C(O)C(C)O1 (stereo not drawn)
dose: 0.5 mg/kg/injection, schedule: Q01DX010 (sc), vehicle: saline with Tween-80
  T/C: 73 % of control
dose: 1.0 mg/kg/injection, schedule: Q01DX010 (sc), vehicle: saline with Tween-80
  T/C: 97 % of control
dose: 1.0 mg/kg/injection, schedule: Q04DX004 (sc), vehicle: saline with Tween-80
  T/C: 95 % of control
dose: 2.0 mg/kg/injection, schedule: Q01DX010 (sc), vehicle: saline with Tween-80
  T/C: 105 % of control
dose: 2.0 mg/kg/injection, schedule: Q04DX004 (sc), vehicle: saline with Tween-80
  T/C: 47 % of control
dose: 4.0 mg/kg/injection, schedule: Q04DX004 (sc), vehicle: saline with Tween-80
  T/C: 50 % of control

## BrC1CC(Br)c2c1c1c(c3c2C(Br)CC3Br)C(Br)CC1Br (stereo not drawn)
dose: 225.0 mg/kg/injection, schedule: Q04DX004 (sc), vehicle: water
  T/C: 76 % of control
dose: 300.0 mg/kg/injection, schedule: Q04DX004 (sc), vehicle: water
  T/C: 84 % of control
dose: 450.0 mg/kg/injection, schedule: Q04DX004 (sc), vehicle: water
  T/C: 157 % of control
dose: 900.0 mg/kg/injection, schedule: Q04DX004 (sc), vehicle: water
  T/C: 158 % of control
dose: 1200.0 mg/kg/injection, schedule: Q04DX004 (sc), vehicle: water
  T/C: 116 % of control
dose: 1800.0 mg/kg/injection, schedule: Q04DX004 (sc), vehicle: water
  T/C: 22 % of control
